Measurements from US12275731B2, “Azaindole inhibitors of wild-type and mutant forms of LRRK2” (DANA-FARBER CANCER INSTITUTE, INC., priority 2018, dated 2025).

Legend:
Test in all cases: KinomeScan profiling
Format in all cases: binding
NIK = NIK (Homo sapiens, UniProt Q99558); settings: read-out: % control
Outline: (§1)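 At 1 μM in DMSO, compounds are run through a broad 468-member kinase panel. The luminescent read-out is normalised so that vehicle gives 100% and a positive control gives 0%; any kinase falling below 35% is treated as a target.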

PIK3C2B = PIK3C2B (Homo sapiens, UniProt O00750); settings: read-out: % control
Outline: as §1

CAMK1B = CAMK1B (Homo sapiens, UniProt Q6P2M8); settings: read-out: % control
Sequence of CAMK1B (Q6P2M8 whole entry): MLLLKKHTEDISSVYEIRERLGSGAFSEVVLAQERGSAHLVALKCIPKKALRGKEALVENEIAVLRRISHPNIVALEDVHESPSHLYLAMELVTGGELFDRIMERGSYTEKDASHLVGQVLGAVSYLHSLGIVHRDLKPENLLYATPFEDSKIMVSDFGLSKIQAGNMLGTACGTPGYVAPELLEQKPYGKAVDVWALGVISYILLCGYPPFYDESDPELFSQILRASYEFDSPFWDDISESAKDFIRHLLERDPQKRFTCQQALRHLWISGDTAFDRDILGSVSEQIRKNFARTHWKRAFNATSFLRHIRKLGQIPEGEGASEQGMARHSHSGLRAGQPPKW
Outline: as §1

CHEK1 = target: T1, CHEK1 (Homo sapiens, UniProt O14757); settings: CHEK1, 1 μM; read-out: % control
T1 sequence (O14757 1-476): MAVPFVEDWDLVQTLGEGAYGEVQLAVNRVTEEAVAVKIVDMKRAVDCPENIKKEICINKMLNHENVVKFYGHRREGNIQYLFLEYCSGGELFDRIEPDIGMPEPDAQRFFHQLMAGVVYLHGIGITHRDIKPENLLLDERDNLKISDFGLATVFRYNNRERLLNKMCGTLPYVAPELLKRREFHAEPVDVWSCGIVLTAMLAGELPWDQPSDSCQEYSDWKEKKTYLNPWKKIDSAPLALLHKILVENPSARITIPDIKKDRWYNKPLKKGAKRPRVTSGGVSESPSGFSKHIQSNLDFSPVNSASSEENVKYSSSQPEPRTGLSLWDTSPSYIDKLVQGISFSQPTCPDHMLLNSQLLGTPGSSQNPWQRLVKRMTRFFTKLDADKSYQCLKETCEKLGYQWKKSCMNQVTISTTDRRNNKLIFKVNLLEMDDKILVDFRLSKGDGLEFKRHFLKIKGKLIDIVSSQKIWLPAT
Outline: as §1

DYRK2 = target: T2, DYRK2 (Homo sapiens, UniProt Q92630); settings: DYRK2, 1 μM; read-out: % control
T2 sequence (Q92630 1-601): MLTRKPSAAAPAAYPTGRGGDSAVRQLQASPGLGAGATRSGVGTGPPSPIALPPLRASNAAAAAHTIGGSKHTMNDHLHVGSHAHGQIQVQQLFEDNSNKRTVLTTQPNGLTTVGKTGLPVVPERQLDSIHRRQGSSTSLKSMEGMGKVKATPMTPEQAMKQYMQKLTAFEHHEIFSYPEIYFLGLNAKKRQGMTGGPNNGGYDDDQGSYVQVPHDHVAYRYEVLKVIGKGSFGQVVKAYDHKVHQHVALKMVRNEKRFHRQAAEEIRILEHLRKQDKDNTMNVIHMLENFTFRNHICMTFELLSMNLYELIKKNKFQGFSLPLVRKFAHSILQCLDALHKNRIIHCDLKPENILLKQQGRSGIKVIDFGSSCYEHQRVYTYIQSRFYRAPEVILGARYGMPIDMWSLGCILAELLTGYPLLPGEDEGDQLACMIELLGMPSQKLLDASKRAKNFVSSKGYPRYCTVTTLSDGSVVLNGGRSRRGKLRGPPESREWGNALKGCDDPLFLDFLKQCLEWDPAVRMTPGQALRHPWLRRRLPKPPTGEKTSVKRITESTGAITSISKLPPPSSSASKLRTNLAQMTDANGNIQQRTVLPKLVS
Outline: as §1

NDR2 = NDR2 (Homo sapiens, UniProt Q9Y2H1); settings: NDR2, 1 μM; read-out: % control
Sequence of NDR2 (Q9Y2H1 whole entry): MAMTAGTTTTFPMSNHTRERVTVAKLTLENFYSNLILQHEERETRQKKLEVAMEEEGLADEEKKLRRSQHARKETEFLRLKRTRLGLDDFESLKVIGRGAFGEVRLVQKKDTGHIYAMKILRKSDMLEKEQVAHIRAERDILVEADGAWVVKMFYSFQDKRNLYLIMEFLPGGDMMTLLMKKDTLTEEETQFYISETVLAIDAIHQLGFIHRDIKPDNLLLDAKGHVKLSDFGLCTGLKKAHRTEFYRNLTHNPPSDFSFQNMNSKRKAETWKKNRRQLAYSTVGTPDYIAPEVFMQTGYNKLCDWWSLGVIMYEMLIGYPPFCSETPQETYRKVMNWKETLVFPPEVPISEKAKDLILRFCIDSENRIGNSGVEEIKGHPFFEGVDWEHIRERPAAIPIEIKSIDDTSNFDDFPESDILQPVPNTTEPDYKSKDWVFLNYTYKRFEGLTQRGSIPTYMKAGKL
Outline: as §1

MLK1 = MLK1 (Homo sapiens, UniProt P80192); settings: MLK1, 1 μM; read-out: % control
Sequence of MLK1 (P80192 whole entry): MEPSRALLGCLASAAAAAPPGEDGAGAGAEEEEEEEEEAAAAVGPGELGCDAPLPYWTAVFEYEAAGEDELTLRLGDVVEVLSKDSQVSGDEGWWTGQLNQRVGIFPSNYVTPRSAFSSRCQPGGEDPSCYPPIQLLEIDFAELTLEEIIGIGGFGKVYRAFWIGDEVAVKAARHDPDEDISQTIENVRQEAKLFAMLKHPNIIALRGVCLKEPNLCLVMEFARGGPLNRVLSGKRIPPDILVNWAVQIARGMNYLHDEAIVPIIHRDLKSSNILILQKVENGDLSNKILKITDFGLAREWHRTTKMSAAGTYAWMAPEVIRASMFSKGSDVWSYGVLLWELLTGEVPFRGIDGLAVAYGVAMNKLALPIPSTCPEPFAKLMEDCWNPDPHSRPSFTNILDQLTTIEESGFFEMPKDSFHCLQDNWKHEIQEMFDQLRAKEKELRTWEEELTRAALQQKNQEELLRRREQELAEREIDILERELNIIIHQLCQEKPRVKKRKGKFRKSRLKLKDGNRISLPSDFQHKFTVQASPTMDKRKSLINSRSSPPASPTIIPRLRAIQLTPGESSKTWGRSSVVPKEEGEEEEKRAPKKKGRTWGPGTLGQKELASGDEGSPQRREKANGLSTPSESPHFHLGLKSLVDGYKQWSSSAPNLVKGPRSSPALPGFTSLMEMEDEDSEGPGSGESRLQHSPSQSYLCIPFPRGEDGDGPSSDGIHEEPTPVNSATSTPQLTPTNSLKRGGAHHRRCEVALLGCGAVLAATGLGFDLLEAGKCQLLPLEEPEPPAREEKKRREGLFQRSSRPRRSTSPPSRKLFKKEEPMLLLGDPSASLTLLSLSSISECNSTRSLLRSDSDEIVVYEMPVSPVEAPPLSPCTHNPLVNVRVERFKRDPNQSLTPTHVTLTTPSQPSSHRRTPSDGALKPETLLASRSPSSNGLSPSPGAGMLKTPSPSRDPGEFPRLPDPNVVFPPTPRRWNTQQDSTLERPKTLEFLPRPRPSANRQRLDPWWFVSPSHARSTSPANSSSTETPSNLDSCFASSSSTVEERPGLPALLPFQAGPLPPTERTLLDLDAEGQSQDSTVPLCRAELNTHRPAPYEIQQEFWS
Outline: as §1

LRRK2(G2019S) = LRRK2(G2019S) (Homo sapiens, UniProt Q5S007, G2019S); settings: read-out: % control
Outline: as §1

[1] = target: T3, ABL1(E255K)-phosphorylated (Homo sapiens, UniProt P00519, E255K); settings: read-out: % control
T3 construct: purchased KinomeScan®
T3 sequence (P00519 whole entry E255K): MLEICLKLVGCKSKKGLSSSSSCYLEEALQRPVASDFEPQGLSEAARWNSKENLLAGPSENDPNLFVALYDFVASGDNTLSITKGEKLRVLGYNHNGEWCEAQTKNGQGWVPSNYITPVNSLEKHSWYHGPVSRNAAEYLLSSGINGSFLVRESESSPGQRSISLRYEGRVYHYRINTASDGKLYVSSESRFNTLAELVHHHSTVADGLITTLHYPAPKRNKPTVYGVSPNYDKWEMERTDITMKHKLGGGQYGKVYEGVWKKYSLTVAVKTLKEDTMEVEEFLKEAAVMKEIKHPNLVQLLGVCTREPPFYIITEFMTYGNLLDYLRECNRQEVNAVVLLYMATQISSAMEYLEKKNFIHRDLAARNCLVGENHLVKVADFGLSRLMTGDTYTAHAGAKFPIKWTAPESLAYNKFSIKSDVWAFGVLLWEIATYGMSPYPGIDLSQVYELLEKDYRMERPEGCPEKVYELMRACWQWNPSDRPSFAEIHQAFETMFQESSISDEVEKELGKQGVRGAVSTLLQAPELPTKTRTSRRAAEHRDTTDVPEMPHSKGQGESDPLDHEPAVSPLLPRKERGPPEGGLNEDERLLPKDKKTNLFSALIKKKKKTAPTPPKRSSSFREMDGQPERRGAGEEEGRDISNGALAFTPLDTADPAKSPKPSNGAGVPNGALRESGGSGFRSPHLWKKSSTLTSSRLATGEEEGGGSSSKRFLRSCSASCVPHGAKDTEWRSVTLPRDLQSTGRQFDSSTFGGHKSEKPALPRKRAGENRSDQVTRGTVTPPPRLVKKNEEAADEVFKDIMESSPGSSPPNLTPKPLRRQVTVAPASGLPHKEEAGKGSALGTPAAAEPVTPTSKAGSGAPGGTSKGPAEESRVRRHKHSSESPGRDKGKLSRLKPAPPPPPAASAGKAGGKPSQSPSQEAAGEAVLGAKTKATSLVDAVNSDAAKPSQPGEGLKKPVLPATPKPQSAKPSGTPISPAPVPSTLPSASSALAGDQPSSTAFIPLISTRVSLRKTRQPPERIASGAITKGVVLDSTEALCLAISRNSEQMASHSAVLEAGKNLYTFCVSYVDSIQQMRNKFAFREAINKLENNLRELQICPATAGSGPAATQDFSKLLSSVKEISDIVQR
Outline: as §1

ACVR2A = target: T4, ACVR2A (Homo sapiens, UniProt P27037); settings: read-out: % control
T4 construct: purchased KinomeScan®
T4 sequence (P27037 20-513): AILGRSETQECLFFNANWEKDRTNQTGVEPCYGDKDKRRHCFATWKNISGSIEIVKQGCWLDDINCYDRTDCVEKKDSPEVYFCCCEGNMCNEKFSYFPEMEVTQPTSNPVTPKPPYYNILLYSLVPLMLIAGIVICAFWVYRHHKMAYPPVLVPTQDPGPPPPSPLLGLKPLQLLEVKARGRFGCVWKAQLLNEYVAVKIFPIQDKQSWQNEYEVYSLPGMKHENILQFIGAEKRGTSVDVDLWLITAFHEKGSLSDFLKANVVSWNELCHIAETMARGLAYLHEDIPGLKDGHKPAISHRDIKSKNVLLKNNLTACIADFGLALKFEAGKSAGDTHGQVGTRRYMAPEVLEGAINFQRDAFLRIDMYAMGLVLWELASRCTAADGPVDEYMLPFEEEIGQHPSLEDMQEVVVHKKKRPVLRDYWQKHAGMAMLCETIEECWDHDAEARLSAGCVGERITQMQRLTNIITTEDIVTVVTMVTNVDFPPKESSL
Outline: as §1

Sequence of NIK (Q99558 whole entry): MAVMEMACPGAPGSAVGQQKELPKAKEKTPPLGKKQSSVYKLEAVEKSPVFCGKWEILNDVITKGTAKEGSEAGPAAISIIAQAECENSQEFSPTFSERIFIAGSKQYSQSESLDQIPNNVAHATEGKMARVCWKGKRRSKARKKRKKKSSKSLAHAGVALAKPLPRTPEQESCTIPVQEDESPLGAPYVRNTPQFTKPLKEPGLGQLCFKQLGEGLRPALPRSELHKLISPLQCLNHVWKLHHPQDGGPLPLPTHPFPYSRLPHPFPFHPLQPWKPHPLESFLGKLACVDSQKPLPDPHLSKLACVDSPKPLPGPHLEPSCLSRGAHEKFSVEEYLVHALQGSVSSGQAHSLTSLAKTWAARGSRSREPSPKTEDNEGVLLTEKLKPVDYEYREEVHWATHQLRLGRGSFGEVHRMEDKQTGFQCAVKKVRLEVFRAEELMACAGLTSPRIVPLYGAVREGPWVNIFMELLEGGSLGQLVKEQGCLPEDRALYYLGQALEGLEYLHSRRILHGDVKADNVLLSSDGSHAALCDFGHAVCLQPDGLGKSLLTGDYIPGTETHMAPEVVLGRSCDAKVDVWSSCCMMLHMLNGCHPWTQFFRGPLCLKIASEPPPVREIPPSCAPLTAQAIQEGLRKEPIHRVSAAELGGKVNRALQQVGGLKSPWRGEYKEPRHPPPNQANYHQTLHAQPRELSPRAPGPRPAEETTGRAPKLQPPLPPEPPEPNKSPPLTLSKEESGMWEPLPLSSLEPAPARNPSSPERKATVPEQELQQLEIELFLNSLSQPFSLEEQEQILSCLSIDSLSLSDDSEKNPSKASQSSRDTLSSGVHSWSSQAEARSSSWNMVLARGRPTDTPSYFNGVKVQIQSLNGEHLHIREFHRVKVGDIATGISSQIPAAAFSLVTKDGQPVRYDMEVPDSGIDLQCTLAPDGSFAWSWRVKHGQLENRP

For CNc1c(-c2cnn([C@H]3CCN(C(C)=O)C[C@@H]3F)c2)cnc2[nH]cc(Cl)c12 [Compound 77, 1-((3S,4S)-4-(4-(3-chloro-4-(methylamino)-1H-pyrrolo[2,3-b]pyridin-5-yl)-1H-pyrazol-1-yl)-3-fluoropiperidin-1-yl)ethan-1-one], the remaining binding at 1 µM (NIK) was 55%, the remaining binding at 1 µM (PIK3C2B) was 100% and the remaining binding at 1 µM (CAMK1B) was 74%. For the same molecule, the remaining binding at 1 µM (CHEK1) was 89%, the remaining binding at 1 µM (DYRK2) was 49% and the remaining binding at 1 µM (NDR2) was 21%. For the same molecule, the remaining binding at 1 µM (MLK1) was 91%, the remaining binding at 1 µM (LRRK2(G2019S)) was 11% and the remaining binding at 1 µM [1] was 73%. It also gave a remaining binding at 1 µM (ACVR2A) of 99%.

For O=C(c1ccc(-c2cnc3[nH]cc(Cl)c3c2NC2CCCC2)cc1)N1CCC(N2CCOCC2)CC1 [Compound 101, (4-(3-chloro-4-(cyclopentylamino)-1H-pyrrolo[2,3-b]pyridin-5-yl)phenyl)(4-morpholinopiperidin-1-yl)methanone], the remaining binding at 1 µM (NIK) was 88%, the remaining binding at 1 µM (PIK3C2B) was 96% and the remaining binding at 1 µM (CAMK1B) was 69%. For the same molecule, the remaining binding at 1 µM (CHEK1) was 83%, the remaining binding at 1 µM (DYRK2) was 100% and the remaining binding at 1 µM (NDR2) was 63%. For the same molecule, the remaining binding at 1 µM (MLK1) was 96%, the remaining binding at 1 µM (LRRK2(G2019S)) was 22% and the remaining binding at 1 µM [1] was 100%. It also gave a remaining binding at 1 µM (ACVR2A) of 95%.

CNc1c(-c2ccc(C(=O)N3CCC(N4CCOCC4)CC3)cc2)cnc2[nH]cc(Cl)c12 [Compound 96, (4-(3-chloro-4-(methylamino)-1H-pyrrolo[2,3-b]pyridin-5-yl)phenyl)(4-morpholinopiperidin-1-yl)methanone] was tested, and the remaining binding at 1 µM (NIK) was 13%, the remaining binding at 1 µM (PIK3C2B) was 96% and the remaining binding at 1 µM (CAMK1B) was 87%. The remaining binding at 1 µM (CHEK1) was 84%, the remaining binding at 1 µM (DYRK2) was 12% and the remaining binding at 1 µM (NDR2) was 19%. It also gave a remaining binding at 1 µM (MLK1) of 96%, a remaining binding at 1 µM (LRRK2(G2019S)) of 3.2% and a remaining binding at 1 µM [1] of 92%. For the same molecule, the remaining binding at 1 µM (ACVR2A) was 97%.
